This is an account of results in patent US8742156B2 (priority 2010, dated 2014).

Where a name gives a salt, the structure may show the parent alone. Read-outs that look alike come from different tables or passages of the source.

Data set [1] relates to MDCK cells. In words: Cell Viability Test (MTT). It is filed as cell-based, canine. To be noted: 50 uM, 72 hours. The protocol:
This compound was obtained from the National Cancer Institute, USA. Cell Viability Test: MDCK cells were seeded at 2×10^6/ml in a 96-well plate for 16-24 hours. Compound 58 (50 uM) was added to the cells. DMSO was added to the cells as a control. Cells were incubated at 37° C. and 5% CO2 for 72 hours, and then Thiazolyl Blue Tetrazolium Bromide (MTT) was added to a final concentration of 0.1 mg/ml. After two hours, the culture supernatant was removed and each well was replenished with isopropanol. The MTT metabolic product, formazan, was dissolved in isopropanol for five minutes with shaking. The optical densities of formazan and background were measured at 560 nm and 670 nm, respectively.

For data set [2], the system named is H1N1 virus (A/HK/54/98 (Tamiflu-sensitive strain)). Description: Viral infection of MDCK cells, TCID50 viral titer, H1N1 (Tamiflu-sensitive). It counts as cell-based, Human influenza H1N1 virus. To be noted: for TCID50/ml H1N1 virus: m.o.i of 2, supernatant 48-hour post-infection; for viral titers of Tamiflu-sensitive (Tami-S) H1N1 virus decreased (fold): FIG. 1, multiplicity of infection of 0.2, 48-hour post-infection.

In data set [3] the test system is H9N2 (A/Quail/HK/G1/97). It counts as cell-based, influenza H9N2 virus. To be noted: for TCID50/ml H9N2 virus: m.o.i of 2, supernatant 48-hour post-infection.
In data set [4] the test system is H3N2 (A/H3N2/1174/99). Description: Viral infection of MDCK cells, TCID50 viral titer, H3N2. It is filed as cell-based, influenza H3N2 virus. To be noted: for TCID50/ml H3N2 virus: m.o.i of 2, supernatant 48-hour post-infection.

`N=C(Nc1ccccc1)SCCCSC(=N)Nc1ccccc1` [Compound 58, Carbamimidothioic acid, phenyl-, 1,3-propanediyl ester, dihydrobromide]: the “cytotoxicity in MDCK cells compared with DMSO” value in data set [1] was “does not display cytotoxicity”. Also, the Cytotoxicity index in data set [1] (MDCK cells, MTT, relative to DMSO (1.0)) is 0.916. In addition, the “TCID50/ml H1N1 virus” value in data set [2] (10 μM) was 2.90 × 10^4 TCID50/ml; in data set [2] (20 μM), 1.82 × 10^4 TCID50/ml; in data set [2] (50 μM), 4.53 × 10^2 TCID50/ml. The “inhibitory effects against Tami-S H1N1 virus” value in data set [2] (FIG. 1, multiplicity of infection of 0.2) was “potent inhibitory effects”. Further, the “viral titers of Tamiflu-sensitive (Tami-S) H1N1 virus decreased (fold)” value in data set [2] was 5 fold. Besides, the “inhibition of replication of H1N1 virus” value in data set [2] (TCID50 results, Table 1A) is given as “inhibits the replication”. In addition, the “TCID50/ml H9N2 virus” value in data set [3] (10 μM) is reported as 1.14 × 10^3 TCID50/ml; in data set [3] (20 μM), 4.16 × 10^2 TCID50/ml; in data set [3] (50 μM), 1.90 × 10^2 TCID50/ml. The “inhibition of replication of H9N2 virus” value in data set [3] (TCID50 results, Table 1A) is on record as “inhibits the replication”. Further, the “TCID50/ml H3N2 virus” value in data set [4] (10 μM) was 4.61 × 10^4 TCID50/ml; in data set [4] (20 μM), 1.72 × 10^4 TCID50/ml; in data set [4] (50 μM), 7.24 × 10^3 TCID50/ml. Further, the “inhibition of replication of H3N2 virus” value in data set [4] (TCID50 results, Table 1A) is on record as “inhibits the replication”.

For the compound `O=C(Nc1ccc(Nc2ccncc2)cc1)c1ccc(Nc2ccnc3ccccc23)cc1[N+](=O)[O-]` [Compound 73, 2-nitro-N-[4-(pyridin-4-ylamino)phenyl]-4-(quinolin-4-ylamino)benzamide], in data set [2] (100 μM), the “TCID50/ml H1N1 virus” value is reported as 2.28 × 10^3 TCID50/ml. Moreover, in data set [2] (H1N1 tamiflu-sensitive, Table 1B (100 μM)), the “virus level suppressed (fold)” value was “around 10 fold”.

Consider `CCOC(=O)C1=C[C@@H](OC(CC)CC)[C@H](NC(C)=O)[C@@H](N)C1` [Tamiflu, oseltamivir, reference compound], for which the “TCID50/ml H1N1 virus” value in data set [2] (50 μM) is 1.45 × 10^4 TCID50/ml; in data set [2] (100 μM), 1.52 × 10^3 TCID50/ml. Also, the “viral titers of Tamiflu-sensitive (Tami-S) H1N1 virus decreased (fold)” value in data set [2] is 8 fold. Moreover, in data set [3] (50 μM), the “TCID50/ml H9N2 virus” value is given as 9.00 × 10^1 TCID50/ml. The “TCID50/ml H3N2 virus” value in data set [4] (50 μM) is recorded as 7.24 × 10^3 TCID50/ml.
